Data: the NIST ThermoML archive (doi:10.1016/j.tca.2010.08.002)
± gives the expanded uncertainty stated by the source.

Test: molar heat capacity at saturation pressure
Settings: Vacuum adiabatic calorimetry

CCCCn1cc[n+](C)c1.O=S(=O)([O-])C(F)(F)F [1-butyl-3-methylimidazolium trifluoromethanesulfonate]
Settings	molar heat capacity [J/K/mol]
170.36 K, Crystal	235.9 ± 0.4
171.28 K, Crystal	236.8 ± 0.4
172.71 K, Crystal	238.3 ± 0.4
173.26 K, Crystal	238.8 ± 0.4
175.07 K, Crystal	240.6 ± 0.4
175.23 K, Crystal	240.9 ± 0.4
177.2 K, Crystal	242.9 ± 0.4
177.42 K, Crystal	243.1 ± 0.4
179.17 K, Crystal	245 ± 0.4
179.77 K, Crystal	245.6 ± 0.4
181.13 K, Crystal	247.1 ± 0.5
182.11 K, Crystal	248.1 ± 0.5
183.1 K, Crystal	249.2 ± 0.5
184.46 K, Crystal	250.6 ± 0.5
185.06 K, Crystal	251.3 ± 0.5
186.8 K, Crystal	253.2 ± 0.5
187.02 K, Crystal	253.5 ± 0.5
188.97 K, Crystal	255.7 ± 0.5
189.13 K, Crystal	255.8 ± 0.5
190.92 K, Crystal	257.9 ± 0.5
191.47 K, Crystal	258.4 ± 0.5
192.87 K, Crystal	260 ± 0.5
193.8 K, Crystal	260.9 ± 0.5
194.82 K, Crystal	262.1 ± 0.5
196.12 K, Crystal	263.5 ± 0.5
196.77 K, Crystal	264.3 ± 0.5
198.44 K, Crystal	266.1 ± 0.5
198.72 K, Crystal	266.6 ± 0.5
200.66 K, Crystal	268.7 ± 0.5
200.76 K, Crystal	268.7 ± 0.5
202.67 K, Crystal	271 ± 0.5
203.13 K, Crystal	271.4 ± 0.5
204.73 K, Crystal	273.3 ± 0.5
205.57 K, Crystal	274.2 ± 0.5
206.78 K, Crystal	275.7 ± 0.5
208 K, Crystal	276.9 ± 0.5
208.82 K, Crystal	278.1 ± 0.5
210.42 K, Crystal	279.6 ± 0.5
210.87 K, Crystal	280.4 ± 0.5
212.84 K, Crystal	282.5 ± 0.5
212.92 K, Crystal	282.7 ± 0.5
214.96 K, Crystal	285 ± 0.5
215.25 K, Crystal	285.3 ± 0.5
217 K, Crystal	287.4 ± 0.5
217.66 K, Crystal	288 ± 0.5
219.02 K, Crystal	289.6 ± 0.5
220.07 K, Crystal	290.8 ± 0.5
221.05 K, Crystal	292.2 ± 0.5
222.47 K, Crystal	293.7 ± 0.5
223.08 K, Crystal	294.5 ± 0.5
224.86 K, Crystal	296.5 ± 0.5
225.1 K, Crystal	296.8 ± 0.5
227.12 K, Crystal	299.4 ± 0.5
227.25 K, Crystal	299.4 ± 0.5
229.13 K, Crystal	301.7 ± 0.5
229.63 K, Crystal	302.3 ± 0.5
231.14 K, Crystal	304 ± 0.5
232 K, Crystal	305.2 ± 0.5
233.14 K, Crystal	306.6 ± 0.5
234.37 K, Crystal	308.1 ± 0.5
235.15 K, Crystal	308.9 ± 0.5
236.73 K, Crystal	311 ± 0.5
237.14 K, Crystal	311.5 ± 0.5
239.09 K, Crystal	313.8 ± 0.5
239.13 K, Crystal	313.8 ± 0.5
241.12 K, Crystal	316.1 ± 0.5
241.44 K, Crystal	316.7 ± 0.5
243.1 K, Crystal	318.7 ± 0.5
243.78 K, Crystal	319.6 ± 0.5
245.08 K, Crystal	321 ± 0.5
246.12 K, Crystal	322.2 ± 0.5
247.06 K, Crystal	323.3 ± 0.5
248.45 K, Crystal	325.1 ± 0.5
249.03 K, Crystal	325.9 ± 0.5
250.76 K, Crystal	328 ± 0.5
250.78 K, Crystal	328 ± 0.5
250.99 K, Crystal	328.3 ± 0.5
252.81 K, Crystal	330.6 ± 0.5
252.95 K, Crystal	330.6 ± 0.5
253.1 K, Crystal	330.8 ± 0.5
254.78 K, Crystal	332.9 ± 0.5
254.91 K, Crystal	333.2 ± 0.5
255.41 K, Crystal	333.7 ± 0.5
256.73 K, Crystal	335.5 ± 0.5
256.86 K, Crystal	335.5 ± 0.5
257.72 K, Crystal	336.3 ± 0.5
258.69 K, Crystal	337.8 ± 0.5
258.81 K, Crystal	337.8 ± 0.5
260.02 K, Crystal	339.2 ± 0.5
260.34 K, Crystal	339.8 ± 0.5
260.64 K, Crystal	340.4 ± 0.5
260.75 K, Crystal	340.4 ± 0.5
262.32 K, Crystal	342.1 ± 0.5
262.38 K, Crystal	342.4 ± 0.5
262.59 K, Crystal	342.7 ± 0.5
262.69 K, Crystal	342.7 ± 0.5
264.34 K, Crystal	345 ± 0.5
264.53 K, Crystal	345.3 ± 0.5
264.6 K, Crystal	345 ± 0.5
264.62 K, Crystal	345.3 ± 0.5
265.54 K, Crystal	346.1 ± 0.5
266.29 K, Crystal	347.3 ± 0.6
266.46 K, Crystal	347.6 ± 0.6
266.56 K, Crystal	347.6 ± 0.6
266.89 K, Crystal	347.9 ± 0.6
267.48 K, Crystal	348.7 ± 0.6
268.23 K, Crystal	349.9 ± 0.6
268.4 K, Crystal	349.9 ± 0.6
268.49 K, Crystal	350.2 ± 0.6
269.17 K, Crystal	350.7 ± 0.6
291.91 K, Liquid	424.4 ± 0.6
293.17 K, Liquid	425 ± 0.6
293.82 K, Liquid	425.6 ± 0.6
294.28 K, Liquid	425.6 ± 0.6
295.28 K, Liquid	426.2 ± 0.6
295.44 K, Liquid	426.2 ± 0.6
295.71 K, Liquid	426.5 ± 0.6
297.38 K, Liquid	427 ± 0.6
297.43 K, Liquid	427.3 ± 0.6
297.61 K, Liquid	427.6 ± 0.6
299.48 K, Liquid	428.2 ± 0.6
301.69 K, Liquid	429.6 ± 0.6
304 K, Liquid	430.8 ± 0.6
306.31 K, Liquid	431.9 ± 0.6
308.62 K, Liquid	433.1 ± 0.6
310.93 K, Liquid	434.5 ± 0.6
313.24 K, Liquid	435.7 ± 0.6
315.55 K, Liquid	436.8 ± 0.6
317.86 K, Liquid	438 ± 0.6
320.17 K, Liquid	439.1 ± 0.6
322.48 K, Liquid	440.6 ± 0.6
324.79 K, Liquid	441.7 ± 0.6
327.1 K, Liquid	443.2 ± 0.6
329.4 K, Liquid	444.3 ± 0.6
331.71 K, Liquid	445.5 ± 0.6
334.02 K, Liquid	446.6 ± 0.6
336.33 K, Liquid	448.1 ± 0.7
338.64 K, Liquid	449.2 ± 0.7
340.94 K, Liquid	450.7 ± 0.7
343.24 K, Liquid	451.8 ± 0.7
345.55 K, Liquid	453 ± 0.7
347.85 K, Liquid	454.3 ± 0.7
350.16 K, Liquid	455.5 ± 0.7
352.47 K, Liquid	456.9 ± 0.7
354.77 K, Liquid	458.1 ± 0.7
357.08 K, Liquid	459.5 ± 0.7
359.38 K, Liquid	460.7 ± 0.7
361.68 K, Liquid	461.8 ± 0.7
363.99 K, Liquid	463 ± 0.7
366.29 K, Liquid	464.4 ± 0.7
368.59 K, Liquid	465.6 ± 0.7
